Source: US8742141B2, “Inhibition and treatment of prostate cancer metastasis” (Northwestern University, priority 2008, dated 2014)
Entries after “also recorded” stand apart in the source; their conditions may differ.

Tests used:
PC3-M or PC3 cells = test: Cell invasion assay, compounds of Example 7; format: cell-based, human; settings: 10 μM of compound
Method: (§1) Assays were conducted using methods as described in Craft et al. (2008, Mol. Pharmocol., 73(1):235-242; herein incorporated by reference in its entirety).
(§2) The anti-metastatic activity of the compounds of Example 7 was tested using the procedure of Example 2. Specifically, PC3-M or PC3 cells were treated with 10 μM of compound (for invasion, FIG. 9) or a range of concentrations (for growth inhibition, FIG. 10). For invasion, values are the mean±SD number of invading cells, as a percent of untreated controls, from N=3 separate assays run at different times (each assay was in replicates of N=4). Cell viability was determined by MTT assay as recited in Kyle et al., Mol. Pharmacol, 51(2):193-200 (1997); herein incorporated in its entirety. Values are the mean±SD of N=2 separate assays run at different times (N=3 for each assay), and are the percent of untreated controls.

PC3-M cells = test: Cell invasion assay, compounds 21-48; format: cell-based, human; settings: 10 μM of compound
Method: as §1
as §2, with “of” for “of the”, “21-26” for “of Example 7”, “PC3-M” for “PC3-M or PC3”, “11)” for “9)”, “12).” for “10).”, “incorporated by reference” for “incorporated”
as §2, with “of” for “of the”, “31-38” for “of Example 7”, “PC3-M” for “PC3-M or PC3”, “13)” for “9)”, “14).” for “10).”, “incorporated by reference” for “incorporated”
as §2, with “of” for “of the”, “41-48” for “of Example 7”, “PC3-M” for “PC3-M or PC3”, “15)” for “9)”, “16).” for “10).”, “incorporated by reference” for “incorporated”

[1] = system: PC3-M human prostate cancer cells; test: 3-day growth inhibition MTT assay; format: cell-based; settings: range of concentrations
Method: PC3-M human prostate cancer cells were treated with different concentrations of the indicated compound, and then MTT reduction as an indicator of cell viability was measured according to the method of Example 9.
The anti-metastatic activity of compounds 21-26 was tested using the procedure of Example 2. Specifically, PC3-M cells were treated with 10 μM of compound (for invasion, FIG. 11) or a range of concentrations (for growth inhibition, FIG. 12). For invasion, values are the mean±SD number of invading cells, as a percent of untreated controls, from N=3 separate assays run at different times (each assay was in replicates of N=4). Cell viability was determined by MTT assay as recited in Kyle et al., Mol. Pharmacol, 51(2):193-200 (1997); herein incorporated by reference in its entirety. […]
The anti-metastatic activity of compounds 31-38 was tested using the procedure of Example 2. […] Cell viability was determined by MTT assay as recited in Kyle et al., Mol. Pharmacol, 51(2):193-200 (1997); herein incorporated by reference in its entirety. […]
The anti-metastatic activity of compounds 41-48 was tested using the procedure of Example 2. […] Cell viability was determined by MTT assay as recited in Kyle et al., Mol. Pharmacol, 51(2):193-200 (1997); herein incorporated by reference in its entirety. […]

[2] = system: PC3-M, PC3, 1542CPTX, 1532CPTX, 1532NPTX, and 1542NPTX cells; test: Cell invasion assay, invasion time extended to 16 hours; format: cell-based, human; settings: invasion assay time 16 hours
Method: as §1
Expanded studies were performed on compound 46. Cell invasion assays conducted using the procedure of Example 2 utilized control, genistein-treated, and compound 46-treated PC3-M, PC3, 1542CPTX, 1532CPTX, 1532NPTX, and 1542NPTX cells (FIG. 17, FIG. 28). This allowed assay conditions to be adjusted so as to optimize assessment of differences between these three treatment conditions. In particular, the invasion assay time was extended from 14 to 16 hours.

[3] = Stability after radiation and autoclaving; format: physicochemical
Method: Successful scale-up of synthesis of compound 46 was conducted according to the methods of Examples 7, 11, and the Detailed Description, yielding 10 g of material that is >98% pure (by HPLC).

[4] = Short-term animal toxicity study, oral gavage; format: in vivo; settings: 0.15, 1.5, 15, or 150 mg/kg body weight/day, 5 days
Method: Six week old athymic male mice were dosed by oral gavage with 0.15, 1.5, 15, or 150 mg KBU2046/kg body weight/day, or vehicle control, daily for 5 days. There were 3 mice per dose level.

[5] = system: PC3, PC3-M, 1532CPTX, 1542CPTX, 1532NPTX, and 1542NPTX; test: Growth inhibition MTT assay in different cell lines; format: cell-based, human; settings: range of concentrations
Method: Growth inhibition assays were performed with different cell lines using the procedure of Example 2. Specifically, cell lines (PC3, PC3-M, 1532CPTX, 1542CPTX, 1532NPTX, and 1542NPTX) were treated with a range of concentrations of compound 46 (FIG. 18, FIG. 29). Cell viability was determined by MTT assay as recited in Kyle et al., Mol. Pharmacol, 51(2):193-200 (1997); herein incorporated by reference in its entirety. Data are the mean±SEM of a single experiment, performed in triplicate.

[6] = system: ER promoter-luciferase reporter vector construct; test: ER promoter-luciferase reporter assay in MCF-7 cells; format: cell-based, human; settings: 10 μM
Method: (§3) The genes were: TFF1 (trefoil factor 1; also known as pS2), PGR (progesterone receptor), and CPSD (cathepsin D). Gene expression was measured by isolating RNA, and performing real time quantitative reverse transcription/polymerase chain reaction (qRT/PCR), using exon spanning primers (purchased from Applied Biosystems). The expression of GAPDH was also measured, and used to normalize the expression of ER responsive genes. Data below are the mean±SD of a single experiment, performed in duplicate. […] Additionally, the ability of compound 46 to activate an ER promoter-luciferase reporter vector construct after transient transfection of the human ER positive breast cancer cell line, MCF-7, was evaluated (FIG. 31). […] “No associated control cells” were transfected with an identical vector construct that lacked the estrogen response element, i.e., noERE.

[7] = system: Estrogen receptor (ER) positive human MCF-7 breast cancer cells; test: Expression of estrogen responsive genes (TFF1, PGR, CPSD) in MCF-7 cells; format: cell-based; settings: 0.1-50 μM, 24 hours, hormone-free conditions
Method: as §3

O=c1c(-c2ccccc2)coc2ccccc12 [Compound 1]
inhibition of cell invasion (anti-metastatic activity) (PC3-M or PC3 cells): did not show any significant inhibition of cell invasion

O=c1c(-c2ccc(O)cc2)coc2cc(O)cc(O)c12 [Compound 8]
inhibition of cell invasion (anti-metastatic activity) (PC3-M or PC3 cells): did not show any significant inhibition of cell invasion

O=c1oc2cc(O)cc(O)c2cc1-c1ccc(O)cc1 [Compound 17]
inhibition of cell invasion (anti-metastatic activity) (PC3-M or PC3 cells): did not show any significant inhibition of cell invasion

O=C1c2c(O)cc(O)cc2OCC1c1ccc(O)cc1 (centres unmarked) [Compound 22, 5,7,4′-trihydroxyisoflavanone]
anti-invasion efficacy (PC3-M cells): retain anti-invasion efficacy | cell growth inhibition (MTT) [1]: little-to-no effect upon cell growth inhibition

COc1ccc(-c2cc3c(OC)cc(OC)cc3oc2=O)cc1 [Compound 23]
anti-invasion efficacy (PC3-M cells): loss of activity

CC(=O)Oc1ccc(-c2cc3c(OC(C)=O)cc(OC(C)=O)cc3oc2=O)cc1 [Compound 24]
anti-invasion efficacy (PC3-M cells): loss of activity

O=c1oc2cc(O)cc(O)c2cc1-c1ccc(O)cc1 [Compound 25]
anti-invasion efficacy (PC3-M cells): loss of activity

O=c1c(-c2cccc(Cl)c2)coc2ccccc12 [Compound 38, 3′-chloroisoflavone]
anti-invasion efficacy (PC3-M cells): anti-invasive | cell growth inhibition (MTT) [1]: growth inhibitory effects

O=C1c2ccccc2OCC1c1ccc(F)cc1 (centres unmarked) [Compound 46, 4′-fluoroisoflavanone]
anti-invasion efficacy compared to genistein [2]: greater efficacy than genistein; also recorded: greater anti-invasion efficacy compared to genistein | compound stability ([3]; after exposure to 40 kGy of radiation): stability was documented | compound stability ([3]; after exposure to high temperatures and pressures (autoclaving)): stability was documented | toxicity [4]: no evidence of toxicity | toxicity in growth inhibition assay (MTT cell viability) [5]: less toxic than genistein, and in fact shows no toxicity; also recorded: no cell toxicity | luciferase activity [6]: no effect | estrogenic activity (expression of estrogen responsive genes) [7]: no estrogenic activity
